Test results as given in patent US10654834B2 (Venenum Biodesign, LLC, priority 2016, dated 2020).

How the values were obtained:
mouse TGR5 receptor = molecular target: T1, mouse TGR5 receptor (Mus musculus, UniProt Q80SS6); test: Mouse TGR5 HTRF cAMP production assay (HEK293-EBNA cells, Cisbio cAMP HiRange kit); format: cell-based; conditions: HEK293-EBNA cells overexpressing mouse TGR5, HTRF cAMP assay
T1 construct: host or cells: HEK293-EBNA (293 c18, ATCC CRL10852)
T1 sequence (Q80SS6 1-329): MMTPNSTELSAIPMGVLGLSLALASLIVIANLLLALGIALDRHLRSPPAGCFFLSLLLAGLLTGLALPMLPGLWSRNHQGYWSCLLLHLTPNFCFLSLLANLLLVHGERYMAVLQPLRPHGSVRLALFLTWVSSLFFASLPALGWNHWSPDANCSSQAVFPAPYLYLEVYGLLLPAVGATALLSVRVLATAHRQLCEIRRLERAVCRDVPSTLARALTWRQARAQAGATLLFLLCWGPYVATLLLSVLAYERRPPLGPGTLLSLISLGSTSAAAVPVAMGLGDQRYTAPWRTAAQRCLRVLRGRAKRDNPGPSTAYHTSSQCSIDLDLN
How it was run: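 HEK293-EBNA cells stably expressing mouse TGR5 (episomal vector) were suspended in serum-free DMEM with 500 μM IBMX and exposed to 12-point half-log compound dilutions for 1 h at room temperature. cAMP was detected by HTRF (d2-cAMP/anti-cAMP cryptate, 1 h, room temperature), giving EC50 from duplicates.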

[1] = Pharmacokinetic profile in mice after oral gavage; format: in vivo, mouse; conditions: mouse; fasted male Hilltop mice, 10 mg/kg oral gavage, plasma; read-out: Cmax
How it was run: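 Fasted 8-week male Hilltop mice given 10 mg/kg orally in 20% PEG400/80% 0.5% CMC + 0.25% Tween-80. EDTA plasma sampled 0-4 h, measured by LC-MS/MS (MRM, positive ion); Cmax and AUC derived non-compartmentally, values being means of three mice.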

EC50 (mouse TGR5 receptor)	Cmax [1]	SMILES
< 0.1 µM	55 ng/mL	N#Cc1ccc(CCNC(=O)[C@@H]2CCCN2c2cc(N3CCC(CCCC(=O)O)CC3)nc(C(F)(F)F)n2)cc1 [Compound 29]
< 0.1 µM	53 ng/mL	COc1cc(C(F)(F)F)ccc1CCNC(=O)[C@@H]1CCN1c1cc(N2CCC(CCC(=O)O)CC2)nc(C(F)(F)F)n1 [Compound 239, (S)-3-(1-(6-(2-((2-methoxy-4-(trifluoromethyl)phenethyl)carbamoyl)azetidin-1-yl)-2-(trifluoromethyl)pyrimidin-4-yl)piperidin-4-yl)propanoic acid]
< 0.1 µM	3.2 ng/mL	N#Cc1ccc(CCNC(=O)[C@@H]2CCN2c2cc(N3CCC(CCCC(=O)NC[C@@H](O)[C@H](O)[C@@H](O)[C@@H](O)CO)CC3)nc(C(F)(F)F)n2)cc1 [Compound 260, (S)—N-(4-cyanophenethyl)-1-(6-(4-(4-oxo-4-(((2R,3S,4S,5S)-2,3,4,5,6-pentahydroxyhexyl)amino)butyl)piperidin-1-yl)-2-(trifluoromethyl)pyrimidin-4-yl)azetidine-2-carboxamide]
< 0.1 µM	3.2 ng/mL	N#Cc1ccc(CCNC(=O)[C@@H]2CCCN2c2cc(N3CCC(CCCC(=O)NCCC(=O)NC(CO)(CO)CO)CC3)nc(C(F)(F)F)n2)cc1 [Compound 109, (S)—N-(4-cyanophenethyl)-1-(6-(4-(4-((3-((1,3-dihydroxy-2-(hydroxymethyl)propan-2-yl)amino)-3-oxopropyl)amino)-4-oxobutyl)piperidin-1-yl)-2-(trifluoromethyl)-pyrimidin-4-yl)pyrrolidine-2-carboxamide]
< 0.1 µM	0.6 ng/mL	N#Cc1ccc(CCNC(=O)[C@@H]2CCCN2c2cc(N3CCC(CCCC(=O)NCCCC[C@H](NC(=N)N)C(=O)O)CC3)nc(C(F)(F)F)n2)cc1 [Compound 129, (S)-6-(4-(1-(6-((S)-2-((4-cyanophenethyl)carbamoyl)pyrrolidin-1-yl)-2-(trifluoromethyl)pyrimidin-4-yl)piperidin-4-yl)butanamido)-2-guanidinohexanoic acid]
< 0.1 µM	2 ng/mL	N#Cc1ccc(CCNC(=O)[C@@H]2CCCN2c2cc(N3CCC(CCNC(=N)N)CC3)nc(C(F)(F)F)n2)cc1 [Compound 126, (S)—N-(4-cyanophenethyl)-1-(6-(4-(2-guanidinoethyl)piperidin-1-yl)-2-(trifluoromethyl)pyrimidin-4-yl)pyrrolidine-2-carboxamide]
< 0.1 µM	0.9 ng/mL	N#Cc1ccc(CCNC(=O)[C@@H]2CCN2c2cc(N3CCC(CCNC(=N)N)CC3)nc(C(F)(F)F)n2)cc1 [Compound 285, (S)-N-(4-cyanophenethyl)-1-(6-(4-(2-guanidinoethyl)piperidin-1-yl)-2-(trifluoromethyl)pyrimidin-4-yl)azetidine-2-carboxamide]
< 0.1 µM	1.7 ng/mL	O=C(O)CC[C@@H](NC(=O)CCCC1CCN(c2cc(N3CC[C@H]3C(=O)NCCc3ccc(C(F)(F)F)cc3)nc(C(F)(F)F)n2)CC1)C(=O)O [Compound 294, (R)-2-(4-(1-(2-(trifluoromethyl)-6-((S)-2-((4-(trifluoromethyl)-phenethyl)carbamoyl)azetidin-1-yl)pyrimidin-4-yl)piperidin-4-yl)butanamido)pentanedioic acid]
< 0.1 µM	1.3 ng/mL	CS(=O)(=O)NCCOCCNC(=O)NCCC1CCN(c2cc(N3CC[C@H]3C(=O)NCCc3ccc(C#N)cc3)nc(C(F)(F)F)n2)CC1 [Compound 292, (S)-N-(4-cyanophenethyl)-1-(6-(4-(2-(3-(2-(2-(methylsulfonylamino)-ethoxy)ethyl)ureido)ethyl)piperidin-1-yl)-2-(trifluoromethyl)pyrimidin-4-yl)azetidine-2-carboxamide]
< 0.1 µM	48 ng/mL	O=C(O)CCCC1CCN(c2cc(N3CCC[C@H]3C(=O)NCCc3ccc(C(F)(F)F)cc3)nc(C(F)(F)F)n2)CC1 [Compound 9]
< 0.1 µM	2.7 ng/mL	N#Cc1ccc(CCNC(=O)[C@@H]2CCN2c2cc(N3CCC(CCCC(=O)NCCCCNC(=N)N)CC3)nc(C(F)(F)F)n2)cc1 [Compound 283, (S)-N-(4-cyanophenethyl)-1-(6-(4-(4-((4-guanidinobutyl)amino)-4-oxobutyl)piperidin-1-yl)-2-(trifluoromethyl)pyrimidin-4-yl)azetidine-2-carboxamide]
< 0.1 µM	1350 ng/mL	N#CCCN1CCN(c2cc(N3CCC[C@H]3C(=O)NCCc3ccc(C#N)cc3)nc(C(F)(F)F)n2)CC1 [Compound 32]
< 0.1 µM	33 ng/mL	N#Cc1ccc(CCNC(=O)[C@@H]2CCCN2c2cc(N3CCC(CCCC(=O)NCCS(N)(=O)=O)CC3)nc(C(F)(F)F)n2)cc1 [Compound 62, (S)-N-(4-cyanophenethyl)-1-(6-(4-(4-oxo-4-((2-sulfamoylethyl)amino)butyl)piperidin-1-yl)-2-(trifluoromethyl)pyrimidin-4-yl)pyrrolidine-2-carboxamide]
< 0.1 µM	0.4 ng/mL	N#Cc1ccc(CCNC(=O)[C@@H]2CCCN2c2cc(N3CCC(CCNC(=O)NCCS(=O)(=O)NCC(=O)O)CC3)nc(C(F)(F)F)n2)cc1 [Compound 107]
< 0.1 µM	5 ng/mL	N#Cc1ccc(CCNC(=O)[C@@H]2CCN2c2cc(N3CCC(CCNC(=O)NCCOCCNC(=N)N)CC3)nc(C(F)(F)F)n2)cc1 [Compound 287, (S)-1-(6-(4-(1-amino-1-imino-9-oxo-5-oxa-2,8,10-triazadodecan-12-yl)piperidin-1-yl)-2-(trifluoromethyl)pyrimidin-4-yl)-N-(4-cyanophenethyl)azetidine-2-carboxamid]
< 0.1 µM	< 0.1 ng/mL	N#Cc1ccc(CCNC(=O)[C@@H]2CCCN2c2cc(N3CCC(CCCC(=O)N[C@@H](CCCNC(=N)N)C(=O)N[C@@H](CCCNC(=N)N)C(=O)O)CC3)cc(C(F)(F)F)n2)cc1 [Compound 202, (S)-2-((S)-2-(4-(1-(2-((S)-2-((4-cyanophenethyl)carbamoyl)pyrrolidin-1-yl)-6-(trifluoromethyl)pyridin-4-yl)piperidin-4-yl)butanamido)-5-guanidinopentanamido)-5-guanidinopentanoic acid]
< 0.1 µM	3.7 ng/mL	N[C@@H](CS(=O)(=O)O)C(=O)NCCC1CCN(c2cc(N3CC[C@H]3C(=O)NCCc3ccc(C(F)(F)F)cc3)nc(C(F)(F)F)n2)CC1 [Compound 278, (R)-2-amino-3-oxo-3-((2-(1-(2-(trifluoromethyl)-6-((S)-2-((4-(trifluoromethyl)-phenethyl)carbamoyl)azetidin-1-yl)pyrimidin-4-yl)piperidin-4-yl)ethyl)amino)-propane-1-sulfonic acid]
< 0.1 µM	29 ng/mL	O=C(CCCC1CCN(c2cc(N3CCC[C@H]3C(=O)NCCc3ccc(C(F)(F)F)cc3)nc(C(F)(F)F)n2)CC1)NCCS(=O)(=O)O [Compound 58, (S)-2-(4-(1-(2-(trifluoromethyl)-6-(2-((4-(trifluoromethyl)phenethyl)-carbamoyl)-pyrrolidin-1-yl)-pyrimidin-4-yl)piperidin-4-yl)butanamido)ethanesulfonic acid]
< 0.1 µM	< 1 ng/mL	N#Cc1ccc(CCNC(=O)[C@@H]2CCN2c2cc(N3CCC(CCNC(=O)NCCS(=O)(=O)O)CC3)nc(C(F)(F)F)n2)cc1 [Compound 271, (S)-2-(3-(2-(1-(6-(2-((4-cyanophenethyl)carbamoyl)azetidin-1-yl)-2-(trifluoromethyl)pyrimidin-4-yl)piperidin-4-yl)ethyl)ureido)-ethanesulfonic acid]
